{"source": "patent US20080213252A1", "about": "“METHODS OF TREATING ITCH” (priority 2007, published 2008)", "key": {"PAR4": {"tested_on": "PAR4", "assay": "PAR activation by cytoplasmic calcium release, ratiometric Fura-2 imaging, PAR4 transfected HeLa cells", "type": "cell-based, human", "conditions": "for calcium influx in PAR4 transfected HeLa cells: Fura-2 340:380 ratiometric imaging", "description": "PAR activation observed by cytoplasmic calcium release—The four human PAR cDNAs were obtained from commercial sources and cloned into the pcDNA3.1 (−) vector (Invitrogen). HeLa cells were transfected with 10 μg of vector cDNA using Lipofectamine 2000 (Invitrogen) and cultured for two days in 96-well glass bottom plates at 30,000 cells/well. Cells were loaded with Fura-2 as follows. The medium was aspirated and replaced with 100 μl of complete DMEM containing 2 μM Fura-2 (Invitrogen) and kept at room temperature in the dark for 1 hr. The medium was again aspirated and each well received 90 μl of HEPES buffered saline (20 mM HEPES, 115 mM NaCl, 5.4 mM KCl, 2 mM CaCl2, 0.8 mM MgCl2, 13.8 mM glucose, pH 7.4). Plates were observed using a Zeiss Axiovert 200M microscope equipped with a filter wheel for monitoring excitation at 340 and 380 nm. Axiovision software, version 4.6 was used to analyze ratiometric calcium imaging of the cells. Ten μl of protease was applied approximately 20 seconds after the start of excitation. Images were taken every 5 seconds, beginning at time zero, for 3 minutes. The software was used to analyze the 37 images taken during each 3-minute period."}, "mucunain": {"biological_target": "T1, mucunain (Mucuna pruriens, UniProt B2LSD2)", "T1 construct": "made in house; host or cells: E. coli ER2566 (pTWIN1MUC1300) for recombinant mucunain; native mucunain extracted from M. pruriens spicules", "T1 sequence (B2LSD2 99-430)": "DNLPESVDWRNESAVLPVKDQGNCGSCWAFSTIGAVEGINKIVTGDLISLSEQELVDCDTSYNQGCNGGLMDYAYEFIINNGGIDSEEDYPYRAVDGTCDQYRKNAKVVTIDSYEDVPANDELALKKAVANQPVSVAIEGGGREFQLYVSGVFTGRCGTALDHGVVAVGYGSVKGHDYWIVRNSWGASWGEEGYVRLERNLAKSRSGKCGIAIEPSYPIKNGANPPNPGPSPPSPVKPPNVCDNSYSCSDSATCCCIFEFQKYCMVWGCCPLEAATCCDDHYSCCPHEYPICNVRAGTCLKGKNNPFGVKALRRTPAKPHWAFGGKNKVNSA", "assay": "Chromogenic substrate assay, inhibition of mucunain by E64", "type": "biochemical, M. pruriens", "conditions": "native mucunain 0.9 μM, recombinant mucunain 2.7 μM", "description": "Papain served as a control cysteine protease."}, "skin of volunteers": {"tested_on": "skin of volunteers", "assay": "Psychophysics: itch sensation after insertion of native or reconstituted cowhage spicules into skin", "type": "in vivo", "conditions": "human volunteers; for blocking of itch and other sensations evoked by mucunain-containing spicules: E64 added during reconstitution of spicules; for itch evoked by substance loaded into inactivated spicules: autoclaved spicules soaked in the substance and dried; for itch evoked by PAR4 peptide agonist incubated with inactivated spicules: spicules incubated with peptide at 10 mM", "description": "Reconstitution of spicules—Native spicules were inactivated by autoclaving for 1 hour and reconstituted with native and recombinant mucunains in the presence or absence of cysteine protease inhibitor, E64. Typically, 50 mg of inactivated spicules were mixed with 0.4 ml of 28 μM mucunain in a 2 ml microfuge tube, vortexed, and dried in a Speed-vac for 2 hours at room temperature. These spicules were then considered as ‘reconstituted’ with the protease alone. Spicules prepared in a similar manner but with E64 added at twice the concentration of mucunain, are considered reconstituted with the protease and the inhibitor.\nPsychophysics—These protocols were approved by the Yale University Human Investigation Committee. A row of 10 cowhage spicules were lightly pasted to the flattened end of a Weck-Cel surgical strip, spaced at 1 mm, and applied parallel to the surface of the skin at the mid-volar forearm. […] Every 30 sec, subjects rated the magnitude of each of three qualities of sensation: Itch, pricking/stinging, and burning using the Generalized Labeled Magnitude Scale (Bartoshuk et al. 2004) that employs appropriately placed intensity descriptors of “none”, “barely detectable”, “weak”, “moderate”, “strong”, “very strong” and, at the top of the scale, “the strongest sensation imaginable.” Voltages derived from each subject's movements of a computer mouse that controlled a cursor on a visual representation of this scale were converted to numbers between 0 and 100 and plotted for each quality at successive intervals of 30 s up to 20 min after the insertion of cowhage. Each of nine subjects received, in separate tests, five types of cowhage spicules: native cowhage spicules, heat-inactivated spicules that had been soaked in a solution of cowhage extract containing E64, or the same but without E64, and heat-inactivated spicules that had been previously soaked in a solution of recombinant mucunain containing E64, or the same but without E64. The subject and experimenter were blinded as to the type of spicule administered.\nThe sensory effects of mucunain was further analyzed. A method of introducing mucunain into the skin of volunteers that would mimic the approach associated with the spicules was developed. Such a method would decrease or eliminate the pain associated with using conventional needles as such nociception might interfere with the sensation of itch. Spicules are inactivated when autoclaved but appear to maintain their physical structure. Inactivated spicules were soaked in a solution containing native or recombinant mucunain and then dried. One gram of fresh spicules was stirred for one hour at 4° C. with 20 ml of 0.1 M potassium phosphate buffer (pH 4.8) and 0.9% NaCl and the liquid removed by filtration through cheesecloth. The spicules were teased from the cheesecloth and autoclaved under dry heat for 30 minutes. The mucuna extract was passed through molecular filters to remove components with molecular weights of less than 9 kD. 50 mg of the inactivated, dried spicules were then soaked in 0.05 ml of the filtered extract containing 0.07 mg of cysteine protease (as determined by non-interfering protein assay) with or without 3.5 micrograms of E-64. The spicules were subsequently dried in a Speed-Vac for 2 hours. These spicules were considered ‘reconstituted’ with one batch containing the cysteine protease and its inhibitor and another batch, the protease alone. An analogous approach was used to load spicules with papain or histamine."}}, "note": "Where no end group is shown, it is not given here."}
{"compound": "CC(C)C[C@H](NC(=O)[C@H]1O[C@@H]1C(=O)O)C(=O)NCCCCNC(=N)N", "note": "(relative stereo) [E64, 1-[N-[(L-3-trans-carboxyoxirane-2-carbonyl)-L-leucyl]amino]-4-guanidinobutane]", "values": [{"measurement": "blocking of protease-induced PAR4 activation", "setting": "PAR4; native mucunain, recombinant mucunain and papain in the presence of E64", "result": "blocked"}, {"measurement": "blocking of Z-FR-pNA cleavage by mucunain", "setting": "mucunain", "result": "blocked"}, {"measurement": "blocking of itch and other sensations evoked by mucunain-containing spicules", "setting": "skin of volunteers", "result": "blocked all sensations"}, {"measurement": "blocking of itch and other sensations evoked by mucunain-containing spicules", "setting": "skin of volunteers; listed as E-64", "result": "effective in preventing itch"}]}
{"compound": "NCCc1c[nH]cn1", "note": "[histamine]", "values": [{"measurement": "itch evoked by substance loaded into inactivated spicules", "setting": "skin of volunteers", "result": "produced itch"}]}
{"compound": "AYPGKF-NH2", "values": [{"measurement": "calcium influx in PAR4 transfected HeLa cells", "setting": "PAR4", "result": "induced calcium influx"}, {"measurement": "itch evoked by PAR4 peptide agonist incubated with inactivated spicules", "setting": "skin of volunteers", "result": "elicited itch"}]}
{"compound": "GYPGKF-NH2 [ID; No. 28]", "values": [{"measurement": "itch evoked by PAR4 peptide agonist incubated with inactivated spicules", "setting": "skin of volunteers", "result": "elicited itch"}]}
{"compound": "bromelain", "values": [{"measurement": "calcium influx in PAR4 transfected HeLa cells", "setting": "PAR4", "result": "induced calcium influx"}, {"measurement": "itch evoked by substance loaded into inactivated spicules", "setting": "skin of volunteers", "result": "produced itch"}]}
{"compound": "ficin", "values": [{"measurement": "calcium influx in PAR4 transfected HeLa cells", "setting": "PAR4", "result": "induced calcium influx"}]}
